# Results from patent publication US20100279409A1, “METHOD FOR MODIFYING CELLUAR IMMUNE RESONSE BY MODULATING ACTIVIN ACTIVITY” (priority 2007, published 2010).
# What was measured:
# [1] = tested on: NK cells; assay: NK cell viability by caspase and PI staining; type: cell-based, human; conditions: 24 hours
# Method: With respect to testing viability, 1×10^5 purified NK cells were cultured as described supra, in 96 well-plates. After 24 hours of culture, cells were stained with antibodies to polycaspase, caspase 3/7, caspase 8 and PI.
# [2] = tested on: C57/B6 mice; type: in vivo, mouse; conditions: 100 ng activin-A subcutaneously, live influenza virus intraperitoneally, day 7
# [3] = tested on: NK cells; assay: NKp30 expression on NK cells by flow cytometry; type: cell-based, human; conditions: NK cells after 3 day culture, 100 ng/ml
# Method: In order to investigate the mechanism behind these differences, the same NK cells were purified and cryopreserved immediately after the 3 day culture period. The cells were thawed, washed, and stained for NCR. NKp30, with expression levels determined via flow cytometry. The level of expression was also determined using “ex vivo” samples, and NK cells that were cultured, without exposure to targets.
# [4] = tested on: Human NK cells; assay: CFSE division assay of NK cells; type: cell-based; conditions: 5 days, activin-A 100 ng/ml
# Method: In these experiments, 1×10^5 highly purified human NK cells were labeled with CFSE, and cultured for 5 days in medium supplemented with 20 U/ml IL-2 and 10 ng/ml IL-12, either with or without Poly I:C or LPS, either with or without 100 ng/ml of human recombinant activin-A. Cellular division was assessed by determining loss of CFSE intensity using known, flow cytometric methods.
# [5] = tested on: NK cells; assay: Flow cytometry of CD25 and CD56 on NK cells; type: cell-based, human
# Method: As above, 1×10^5 purified NK cells were cultured in 96 well-plates in media that had been supplemented with IL-2 and IL-12, either with or without the addition of TLR ligands, in the presence of activin-A (100 ng/ml).
# After 24 hours, […] were collected, and stained with anti-CD25 antibodies, with expression being determined by flow cytometry.
substance,measurement,setting,value
activin-A,"apoptosis (polycaspase, caspase 3/7, caspase 8, PI staining)",[1],no indication of apoptosis
same,peptide specific CD8+ IFN-γ+ T cell response,[2],suppressed
same,NKp30 expression,[3],a very limited effect
same,division and proliferation of NK cells,"[4]; IL-2, IL-12, LPS",very strongly suppressed
same,division and proliferation of NK cells,"[4]; IL-2, IL-12, Poly I:C",very strongly suppressed
same,downregulation of CD56,[5]; Example 16,suppressed
same,upregulation of CD25,[5]; Example 16,suppressed
same,CD25 expression,"[5]; IL-2 and IL-12 with or without TLR ligands, activin-A 100 ng/ml, 24 hours",significantly suppressed
